This note sets out measurements from ChEMBL document CHEMBL1148561, “Design, synthesis, and biological evaluation of the N-diarylalkenyl-piperidinecarboxylic acid derivatives as GABA uptake inhibitors (I)” (Bioorg Med Chem Lett, 2006).

The target of the test is Sodium- and chloride-dependent GABA transporter 1 (Homo sapiens, UniProt P30531). Nature of the test: Inhibition of GAT1 transport activity.
Sodium- and chloride-dependent GABA transporter 1, sequence (P30531 whole entry): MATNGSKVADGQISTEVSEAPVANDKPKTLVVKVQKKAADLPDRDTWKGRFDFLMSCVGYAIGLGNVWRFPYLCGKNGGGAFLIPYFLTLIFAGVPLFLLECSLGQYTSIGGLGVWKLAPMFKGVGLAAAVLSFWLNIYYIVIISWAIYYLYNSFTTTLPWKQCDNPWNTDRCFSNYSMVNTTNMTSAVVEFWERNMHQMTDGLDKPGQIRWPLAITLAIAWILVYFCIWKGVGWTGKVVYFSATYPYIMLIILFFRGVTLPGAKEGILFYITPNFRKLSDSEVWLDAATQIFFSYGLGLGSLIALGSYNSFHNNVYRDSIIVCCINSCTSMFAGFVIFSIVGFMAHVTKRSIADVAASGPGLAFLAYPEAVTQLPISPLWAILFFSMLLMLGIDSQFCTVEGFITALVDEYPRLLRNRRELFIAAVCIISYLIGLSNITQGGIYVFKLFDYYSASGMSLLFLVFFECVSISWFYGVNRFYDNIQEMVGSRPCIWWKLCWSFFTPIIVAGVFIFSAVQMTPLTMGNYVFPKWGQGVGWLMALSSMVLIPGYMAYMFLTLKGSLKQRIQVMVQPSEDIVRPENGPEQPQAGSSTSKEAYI
One may read the IC50 as the concentration at which inhibition is half-maximal. The low end stands for inhibition by little substance, the high end for a need for much substance. Take `O=C(O)[C@@H]1CCCN(CCC=C(c2sccc2COCc2ccccc2)c2sccc2COCc2ccccc2)C1`: the concentration for half-maximal inhibition (IC50) stood at 840 nM.

For the compound `CC(C)OCc1ccsc1C(=CCCN1CCCCC1C(=O)O)c1sccc1COC(C)C` (stereo not given), the IC50 was more than 100000 nM.

The compound `COCc1ccsc1C(=CCCN1CCC[C@@H](C(=O)O)C1)c1sccc1COC` returned an IC50 of 2800 nM.

For the compound `O=C(O)[C@@H]1CCCN(CCC=C(c2sccc2COC2CCCCC2)c2sccc2COC2CCCCC2)C1`, the IC50 worked out at 680 nM.

`Cc1ccsc1C(=CCCN1CCC(C(=O)O)CC1)c1sccc1C` came in with a concentration for half-maximal inhibition (IC50) of more than 100000 nM.

In turn, `O=C(O)C1CCN(CCC=C(c2sccc2COC2CCCCC2)c2sccc2COC2CCCCC2)CC1` yielded an IC50 of 1240 nM.

Turning to `COCc1ccsc1C(=CCCN1CCC(C(=O)O)CC1)c1sccc1COC`, the 50% inhibitory concentration (IC50) is more than 100000 nM.

Consider `O=C(O)C1CCN(CCC=C(c2sccc2COc2cccc3ccccc23)c2sccc2COc2cccc3ccccc23)CC1`, for which the IC50 is more than 100000 nM.

Consider `O=C(O)[C@@H]1CCCN(CCC=C(c2sccc2COc2cccc3ccccc23)c2sccc2COc2cccc3ccccc23)C1`, for which it took 66300 nM to reach half-maximal inhibition (IC50).

In the case of `CC(C)OCc1ccsc1C(=CCCN1CCC[C@@H](C(=O)O)C1)c1sccc1COC(C)C`, half-maximal inhibition (IC50) was put at 7100 nM.

For the compound `CC(C)OCc1ccsc1C(=CCCN1CCC(C(=O)O)CC1)c1sccc1COC(C)C`, the 50% inhibitory concentration (IC50) was more than 100000 nM.

`Cc1ccsc1C(=CCCN1CCCCC1C(=O)O)c1sccc1C` (stereo not given) yielded a 50% inhibitory concentration (IC50) of 1360 nM.

The compound `O=C(O)C1CCCCN1CCC=C(c1sccc1COCc1ccccc1)c1sccc1COCc1ccccc1` (stereo not given) had a half-maximal inhibitory concentration (IC50) of 27600 nM.

`O=C(O)C1CCN(CCC=C(c2sccc2COCc2ccccc2)c2sccc2COCc2ccccc2)CC1` gave an IC50 of 4340 nM.

Consider `O=C(O)[C@@H]1CCCN(CCC=C(c2sccc2COc2ccccc2)c2sccc2COc2ccccc2)C1`, for which the concentration for half-maximal inhibition (IC50) turned out to be 340 nM.

On to `COCc1ccsc1C(=CCCN1CCCCC1C(=O)O)c1sccc1COC` (stereo not given), for which 12300 nM corresponded to half-maximal inhibition (IC50).

`O=C(O)C1CCCCN1CCC=C(c1sccc1COC1CCCCC1)c1sccc1COC1CCCCC1` (stereo not given) came in with a half-inhibitory concentration (IC50) of 940 nM.

The compound `O=C(O)C1CCCCN1CCC=C(c1sccc1COc1cccc2ccccc12)c1sccc1COc1cccc2ccccc12` (stereo not given) displayed an IC50 of more than 100000 nM.

Regarding `O=C(O)C1CCN(CCC=C(c2sccc2COc2ccccc2)c2sccc2COc2ccccc2)CC1`, 1500 nM corresponded to half-maximal inhibition (IC50).

`O=C(O)C1CCCCN1CCC=C(c1sccc1COc1ccccc1)c1sccc1COc1ccccc1` (stereo not given) yielded a half-inhibitory concentration (IC50) of 650 nM.
